Molecular target: T1, PLK1 (Homo sapiens, UniProt P53350)
T1 construct: endogenous in cells; host or cells: HeLa
Experiment: PLK1 protein degradation in HeLa cells, Western blotting (PLK1/GAPDH ratio)
Assay type: cell-based
Details: 6 hours compound incubation; for DC50: measured only if the grade of Dmax is A or B; for Dmax: thymidine block and release, 10 points three-fold from 3 μM, PLK1 to GAPDH ratio, read-out: Dmax
In short: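 PLK1 level measured by Western blot as PLK1/GAPDH in HeLa lysates (15 μg protein per lane). Cells were blocked with 2 mM thymidine 24 h, released 4 h, and exposed 6 h to compound, 10 concentrations, 3-fold steps, top 3 μM.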

T1 sequence (P53350 whole entry): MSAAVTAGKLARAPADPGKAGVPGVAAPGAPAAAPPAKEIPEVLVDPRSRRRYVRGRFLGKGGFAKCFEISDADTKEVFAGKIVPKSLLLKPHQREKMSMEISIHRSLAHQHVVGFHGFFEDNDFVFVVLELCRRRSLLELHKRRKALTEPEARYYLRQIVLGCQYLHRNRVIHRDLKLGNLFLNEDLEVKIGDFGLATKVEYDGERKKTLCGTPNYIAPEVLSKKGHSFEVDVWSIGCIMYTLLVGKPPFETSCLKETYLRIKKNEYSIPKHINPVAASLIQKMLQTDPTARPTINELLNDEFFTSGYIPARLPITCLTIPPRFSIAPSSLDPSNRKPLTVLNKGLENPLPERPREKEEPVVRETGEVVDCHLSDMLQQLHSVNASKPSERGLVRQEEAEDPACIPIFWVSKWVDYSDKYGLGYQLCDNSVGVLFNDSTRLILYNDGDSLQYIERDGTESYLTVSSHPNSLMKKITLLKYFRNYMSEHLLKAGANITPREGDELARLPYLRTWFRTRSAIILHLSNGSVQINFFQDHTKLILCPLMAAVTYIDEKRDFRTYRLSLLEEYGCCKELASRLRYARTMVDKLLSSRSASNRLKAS

Question: Which results are given for `COc1cc(C(=O)NC2CCN(CCCCCCCCNc3cccc4nnn(C5CCC(=O)NC5=O)c(=O)c34)CC2)c(F)cc1Nc1ncc2c(n1)N(C1CCCC1)CC(F)(F)C(=O)N2C` (centres unmarked) [Compound 79, 4-((9-cyclopentyl-7,7-difluoro-5-methyl-6-oxo-6,7,8,9-tetrahydro-5H-pyrimido[4,5-b][1,4]diazepin-2-yl)amino)-N-(1-(8-((3-(2,6-dioxopiperidin-3-yl)-4-oxo-3,4-dihydrobenzo[d][1,2,3]triazin-5-yl)amino)octyl)piperidin-4-yl)-2-fluoro-5-methoxybenzamide]?
Answer: DC50: ≤ 0.05 µM; Dmax: ≥ 80%

Question: Which DC50 does the source give for `COc1cc(C(=O)NC2CCN(CCOCCOCCOCCOCCNc3cccc4c3C(=O)N(C3CCC(=O)NC3=O)C4=O)CC2)c(F)cc1Nc1ncc2c(n1)N(C1CCCC1)CC(F)(F)C(=O)N2C` (centres unmarked) [Compound 4, 4-((9-cyclopentyl-7,7-difluoro-5-methyl-6-oxo-6,7,8,9-tetrahydro-5H-pyrimido[4,5-b][1,4]diazepin-2-yl)amino)-N-(1-(14-((2-(2,6-dioxopiperidin-3-yl)-1,3-dioxoisoindolin-4-yl)amino)-3,6,9,12-tetraoxatetradecyl)piperidin-4-yl)-2-fluoro-5-methoxybenzamide] here?
Answer: The DC50 was ≤ 0.05 µM.

Question: And the Dmax?
Answer: Its Dmax is ≥ 80%.

Question: How did the DC50 turn out when `COc1cc(C(=O)NC2CCN(CCc3ccc(CC(=O)Nc4cccc5c4C(=O)N(C4CCC(=O)NC4=O)C5=O)cc3)CC2)c(F)cc1Nc1ncc2c(n1)N(C1CCCC1)CC(F)(F)C(=O)N2C` (centres unmarked) [Compound 42, 4-((9-cyclopentyl-7,7-difluoro-5-methyl-6-oxo-6,7,8,9-tetrahydro-5H-pyrimido[4,5-b][1,4]diazepin-2-yl)amino)-N-(1-(4-(2-((2-(2,6-dioxopiperidin-3-yl)-1,3-dioxoisoindolin-4-yl)amino)-2-oxoethyl)phenethyl)piperidin-4-yl)-2-fluoro-5-methoxybenzamide] was run?
Answer: Its DC50 is > 0.5 µM.

Question: And the Dmax?
Answer: Its Dmax is 60 to 80%.

Question: How did the Dmax turn out when `COc1cc(C(=O)NC2CCN(CCCOCCCCNc3cccc4c3C(=O)N(C3CCC(=O)NC3=O)C4=O)CC2)c(F)cc1Nc1ncc2c(n1)N(C1CCCC1)CC(F)(F)C(=O)N2C` (centres unmarked) [Compound 20, 4-((9-cyclopentyl-7,7-difluoro-5-methyl-6-oxo-6,7,8,9-tetrahydro-5H-pyrimido[4,5-b][1,4]diazepin-2-yl)amino)-N-(1-(3-(4-((2-(2,6-dioxopiperidin-3-yl)-1,3-dioxoisoindolin-4-yl)amino)butoxy)propyl)piperidin-4-yl)-2-fluoro-5-methoxybenzamide] was run?
Answer: The Dmax was < 60%.

Question: Which DC50 does the source give for `COc1cc(C(=O)NC2CCN(CCCn3cnc(CNc4cccc5c4C(=O)N(C4CCC(=O)NC4=O)C5=O)c3)CC2)c(F)cc1Nc1ncc2c(n1)N(C1CCCC1)CC(F)(F)C(=O)N2C` (centres unmarked) [Compound 43] here?
Answer: The DC50 was ≤ 0.05 µM.

Question: And the Dmax?
Answer: The Dmax was ≥ 80%.

Question: What does the source list for `COc1cc(C(=O)N[C@H]2CC[C@H](N3CCN(CCOCCNc4cccc5c4C(=O)N(C4CCC(=O)NC4=O)C5=O)CC3)CC2)c(F)cc1Nc1ncc2c(n1)N(C1CCCC1)CC(F)(F)C(=O)N2C` (some centres unmarked) [Example 103, 4-((9-cyclopentyl-7,7-difluoro-5-methyl-6-oxo-6,7,8,9-tetrahydro-5H-pyrimido[4,5-b][1,4]diazepin-2-yl)amino)-N-((1r,4r)-4-(4-(2-(2-((2-(2,6-dioxopiperidin-3-yl)-1,3-dioxoisoindolin-4-yl)amino)ethoxy)ethyl)piperazin-1-yl)cyclohexyl)-2-fluoro-5-methoxybenzamide]?
Answer: DC50: ≤ 0.05 µM; Dmax: ≥ 80%

Question: Which results are given for `COc1cc(C(=O)NC2CCN(CCCOCCCNc3cccc4c3C(=O)N(C3CCC(=O)NC3=O)C4=O)C2)c(F)cc1Nc1ncc2c(n1)N(C1CCCC1)CC(F)(F)C(=O)N2C` (centres unmarked) [Example 111, 4-((9-cyclopentyl-7,7-difluoro-5-methyl-6-oxo-6,7,8,9-tetrahydro-5H-pyrimido[4,5-b][1,4]diazepin-2-yl)amino)-N-(1-(3-(3-((2-(2,6-dioxopiperidin-3-yl)-1,3-dioxoisoindolin-4-yl)amino)propoxy)propyl)pyrrolidin-3-yl)-2-fluoro-5-methoxybenzamide]?
Answer: DC50: ≤ 0.05 µM; Dmax: ≥ 80%

Question: Which results are given for `COc1cc(C(=O)NC2CCN(CCCCCCCCCCCNc3cccc4c3C(=O)N(C3CCC(=O)NC3=O)C4=O)CC2)c(F)cc1Nc1ncc2c(n1)N(C1CCCC1)CC(F)(F)C(=O)N2C` (centres unmarked) [Compound 15, 4-((9-cyclopentyl-7,7-difluoro-5-methyl-6-oxo-5H,6H,7H,8H,9H-pyrimido[4,5-b][1,4]diazepin-2-yl)amino)-N-(1-(11-((2-(2,6-dioxopiperidin-3-yl)-1,3-dioxo-2,3-dihydro-1H-isoindol-4-yl)amino)undecyl)piperidin-4-yl)-2-fluoro-5-methoxybenzamide]?
Answer: DC50: > 0.5 µM; Dmax: 60 to 80%

Question: What does the source list for `COc1cc(C(=O)NC2CCN(CCCCCCCNc3cccc4c3C(=O)N(C3CCC(=O)NC3=O)C4=O)CC2)c(F)cc1Nc1ncc2c(n1)N(C1CCCC1)CC(F)(F)C(=O)N2C` (centres unmarked) [Compound 11, 4-((9-cyclopentyl-7,7-difluoro-5-methyl-6-oxo-6,7,8,9-tetrahydro-5H-pyrimido[4,5-b][1,4]diazepin-2-yl)amino)-N-(1-(7-((2-(2,6-dioxopiperidin-3-yl)-1,3-dioxoisoindolin-4-yl)amino)heptyl)piperidin-4-yl)-2-fluoro-5-methoxybenzamide]?
Answer: DC50: ≤ 0.5 µM; Dmax: 60 to 80%

Question: `COc1cc(C(=O)NC2CCN(CCOCCOCCOCC(=O)N[C@H](C(=O)N3C[C@H](O)C[C@H]3C(=O)NCc3ccc(-c4scnc4C)cc3)C(C)(C)C)CC2)c(F)cc1Nc1ncc2c(n1)N(C1CCCC1)CC(F)(F)C(=O)N2C` [Compound 81] was tested. Which Dmax did it give?
Answer: The Dmax was < 60%.

Question: Which DC50 does the source give for `COc1cc(C(=O)NC2CCN(CCCCOCCCOCCOCCNc3cccc4c3C(=O)N(C3CCC(=O)NC3=O)C4=O)CC2)c(F)cc1Nc1ncc2c(n1)N(C1CCCC1)CC(F)(F)C(=O)N2C` (centres unmarked) [Compound 23, 4-((9-cyclopentyl-7,7-difluoro-5-methyl-6-oxo-6,7,8,9-tetrahydro-5H-pyrimido[4,5-b][1,4]diazepin-2-yl)amino)-N-(1-(4-(3-(2-(2-((2-(2,6-dioxopiperidin-3-yl)-1,3-dioxoisoindolin-4-yl)amino)ethoxy)ethoxy)propoxy)butyl)piperidin-4-yl)-2-fluoro-5-methoxybenzamide] here?
Answer: The DC50 was ≤ 0.05 µM.

Question: What about the Dmax of the same compound?
Answer: Its Dmax is ≥ 80%.

Question: How did the DC50 turn out when `COc1cc(C(=O)NC2CCN(CCOCCOCCOCCNC(=O)CNc3cccc4c3C(=O)N(C3CCC(=O)NC3=O)C4=O)CC2)c(F)cc1Nc1ncc2c(n1)N(C1CCCC1)CC(F)(F)C(=O)N2C` (centres unmarked) [Compound 30, 4-((9-cyclopentyl-7,7-difluoro-5-methyl-6-oxo-6,7,8,9-tetrahydro-5H-pyrimido[4,5-b][1,4]diazepin-2-yl)amino)-N-(1-(1-((2-(2,6-dioxopiperidin-3-yl)-1,3-dioxoisoindolin-4-yl)amino)-2-oxo-6,9,12-trioxa-3-azatetradecan-14-yl)piperidin-4-yl)-2-fluoro-5-methoxybenzamide] was run?
Answer: Its DC50 is ≤ 0.05 µM.

Question: What about the Dmax of the same compound?
Answer: Its Dmax is ≥ 80%.

Question: With `COc1cc(C(=O)NCCCCCCc2cccc3c2CN(C2CCC(=O)NC2=O)C3=O)c(F)cc1Nc1ncc2c(n1)N(C1CCCC1)CC(F)(F)C(=O)N2C` (centres unmarked) [Compound 164, 4-((9-cyclopentyl-7,7-difluoro-5-methyl-6-oxo-6,7,8,9-tetrahydro-5H-pyrimido[4,5-b][1,4]diazepin-2-yl)amino)-N-(6-(2-(2,6-dioxopiperidin-3-yl)-1-oxoisoindolin-4-yl)hexyl)-2-fluoro-5-methoxybenzamide] as the compound, how does the DC50 read?
Answer: Its DC50 is ≤ 0.5 µM.

Question: What about the Dmax of the same compound?
Answer: Its Dmax is 60 to 80%.

Question: With `COc1cc(C(=O)NCCOCCOCCOCCNc2cccc3c2C(=O)N(C2CCC(=O)NC2=O)C3=O)c(F)cc1Nc1ncc2c(n1)N(C1CCCC1)CC(F)(F)C(=O)N2C` (centres unmarked) [Compound 153, 4-((9-cyclopentyl-7,7-difluoro-5-methyl-6-oxo-6,7,8,9-tetrahydro-5H-pyrimido[4,5-b][1,4]diazepin-2-yl)amino)-N-(2-(2-(2-(2-((2-(2,6-dioxopiperidin-3-yl)-1,3-dioxoisoindolin-4-yl)amino)ethoxy)ethoxy)ethoxy)ethyl)-2-fluoro-5-methoxybenzamide] as the compound, how does the DC50 read?
Answer: The DC50 was ≤ 0.05 µM.

Question: What about the Dmax of the same compound?
Answer: Its Dmax is ≥ 80%.

Reference: patent US20230372498A1, “PLK1 SELECTIVE DEGRADATION INDUCING COMPOUND” (UPPTHERA, priority 2020, published 2023)
